Laboratory results: paper PMC4818757, “Small molecule inhibitors of the Dishevelled‐CXXC5 interaction are new drug candidates for bone anabolic osteoporosis therapy” (EMBO Molecular Medicine, 2016)

Assays:
[1] = test system: mouse embryonic fibroblast (MEF) cells; test: qRT-PCR of pathway-specific target genes in MEF cells (off-target); assay type: cell-based; settings: 12 hours
Experimental: To evaluate off‐target effects of KY‐02327, we monitored the transcriptional regulation of target genes of major cell signaling pathways in KY‐02327‐treated mouse embryonic fibroblast (MEF) cells (Appendix Table S2 and Appendix Fig S5). […] However, the target genes of other pathways were unaffected by the treatment of KY‐02327 (Appendix Fig S5B‐J). […]
on mouse embryonic fibroblast cells for 12 hours. The mRNA level of pathway-specific target genes (Appendix Table S2) was measured by quantitative real-time […]
Data Information: The data are the mean ± s.d. (error bars), and significance was assessed using unpaired Student’s t-test. [n =3]

[2] = test system: ovariectomized (OVX) mice; test: OVX-induced osteoporosis mouse model; assay type: in vivo
Experimental: Figure 6 Effects of KY‐02327 on OVX‐induced osteoporosis model mice • A–H Vehicle or 20 mg of KY‐02327 per kg of animal body weight (mpk) was orally administered or 0.06 mpk of the N‐terminal fragment of PTH (amino acids 1‐34) was subcutaneously injected into the Sham‐operated (Sham) or ovariectomized (OVX) mice on 5 sequential days per week for 4 weeks (n = 4). After calcein injection, the prepared femoral sections of the OVX mice were examined under fluorescence microscope to visualize integrated calcein (A, green, arrows). Nuclei were counterstained with DAPI (A, blue). Scale bars, 100 μm. Osteoblast numbers (B) and calcein double‐labeled surfaces (C) were measured in the femoral sections. The mouse femurs were analyzed using micro‐CT, and BMD (D) and BV/TV (E) were calculated from the micro‐CT data. The three‐dimensional images of femoral trabecular bone were reconstructed (F), and trabecular number (G) and trabecular separation (H) were calculated. Data Information: The data are the mean ± s.d. (error bars). Significance was assessed using Kruskal–Wallis test.
This animal study was approved by the Institutional Review Board of Severance Hospital, Yonsei University College of Medicine. The mice were housed in filter‐topped shoebox cages with a computerized environmental control system (MJ LTD, Seoul, Korea). The care and treatment of experimental animals were performed in accordance with institutional guidelines. The room temperature was maintained at 26.5°C with a relative humidity of approximately 40–70%. The mice were given a standard maintenance diet from Dae Han Bio Link (Daejeon, Korea). For OVX mouse experiments, the surgeries were performed with 8‐week‐old female BL6 mice under anesthesia with avertin (2,2,2‐tribromoethanol; Worthington Biochemical, Freehold, NJ) as described previously (Zahoor et al, 2014). After removing the hair, dorsal incisions were made into the dermal layers above both sides of the ovaries using dissection scissors. The connection between the fallopian tube and the uterine horn was cut, and the ovary was removed. The incision was then sutured with 3 single catgut stitches. Sham mice were used as controls. After 4 weeks, the OVX group was divided into three groups for oral administration of vehicle (saline containing 10% Tween‐60) or 20 mg of KY‐02327 per kg of animal body weight (mpk) of KY‐02327, or for subcutaneous injection of 0.06 mpk of N‐terminal fragment of PTH (amino acids 1–34), which were administered for 5 sequential days per week for 4 weeks. The animals were sacrificed, and the organs were harvested for analysis. For the calcein double‐labeling experiment (Pall et al, 1987), calcein (10 mpk in 2% sodium hydrocarbonate, pH 7.4) was injected twice, on the last day of the 2nd and 3rd week. All the mice were randomly assigned to each groups, and the investigators were blinded to the group allocation during the treatments and experiments.
The mouse femurs were scanned using a micro‐CT system (Skyscan 1072; Skyscan, Aartselaar, Belgium). The scanned image data were reconstructed to create 3D images and analyzed using the CT‐Analyzing Program (Skyscan). For femoral trabecular bone analysis, the femurs were scanned with a voxel size of 10 μm, beginning at the end of the growth plate and extending proximally along the diaphysis, and 80 continuous slices (beginning at 0.1 mm from the most proximal aspect of the growth plate in which both condyles were no longer visible) were selected for analysis.
The femurs of OVX mice and the calvariae of 4‐day‐old mice were fixed in 4% paraformaldehyde in PBS. The bones were then decalcified in 10 mM EDTA and embedded in paraffin. Five‐micrometer tissue sections were deparaffinized in 100% xylene followed by re‐hydration with sequential 100% to 50% ethanol washes. The sections were stained with hematoxylin and eosin (H&E), and light micrographs were captured using a SMZ645 Nikon microscope (Nikon, Tokyo, Japan). […]

[3] = KY‐02327 20 mpk oral, PTH 0.06 mpk subcutaneous, 4 weeks
[4] = KY‐02327 20 mpk oral, PTH 0.06 mpk subcutaneous, 5 days per week for 4 weeks

CCOC(=O)c1cc2cc(O)ccc2n1CC(=O)NCCN1CCCCC1 [KY‐02327]
mRNA levels of Wnt/β‐catenin target genes [1]: significantly increased | target genes of other pathways (off-target) [1]: unaffected | histology of livers, lungs, spleens ([2]; 4 weeks treatment, H&E): No histological abnormalities | weight of treated mice ([2]; 4‐week treatment): did not change significantly | destroyed trabecular bones (3D micro-CT images) [2, 3]: rescued | mineral contents of the bone (BMD), femur, micro‐CT [2, 3]: significantly increased | trabecular bone number [2, 3]: increase | trabecular separation [2, 3]: decrease | volume of bone (BV/TV) ([2]; KY‐02327 20 mpk oral, PTH 0.06 mpk subcutaneous, 4 weeks, vs vehicle): increased | calcein double‐labeled surface [2, 4]: increased | new bone formation (calcein-labeled) in femur [2, 4]: recovered | number of osteoblasts [2, 4]: increased | calcein double-labelled surface, fold increase ([2]; OVX mice, 20 mpk oral): approximately 2 fold | number of osteoblasts, fold increase ([2]; OVX mice, 20 mpk oral): approximately 2 fold
